Legend:
Assay type in all cases: in vivo, Wistar rats
[1] = tested on: physical dependence from morphine (morphine abstinence); assay: Morphine abstinence syndrome, signs scored in the open field test; settings: Morphine − (morphine + compound); compound 3 x 20 mg/kg intramuscularly; one value for the three compounds
Procedure: Thirty six hours after the last injection selected motor and autonomice parameters which are specific symptoms of abstinence were monitored in the <<open field>> test (an arena with a diameter of 120 cm and wall height of 40 cm).
Med., 2002, V.29, p.1-6.). The observable signs were recorded quantitatively (if it was possible) with further assignment of an index to each sign (depending on the specific feature of the sign) and calculation of the sum of scores. The expression of the abstinence syndrome was presented as a sum of scores. The results were processed using nonparametric statistical analysis based on the Mann-Whitney test.

[2] = tested on: nitrites and nitrates (NOx-); assay: Measurement of nitrates/nitrites (NOx-) in brain regions after the morphine abstinence experiment; settings: 3 x 20 mg/kg intramuscularly
Procedure: (§1) After the above experiments the rat brains were isolated and immediately placed in the ice cold 0.9% solution of sodium chloride. After cooling the following structures were isolated from the brain: cerebral cortex, hippocampus, mesencephalon, striatum, brainstem, hypothalamus and cerebellum. The isolated tissue was homogenized in a Potter S homogenizer for 3 minutes at 1500 rpm in 4-5 volumes of 20 mM HEPES (pH 7.5) at 4° C. The supernatants were centrifuged for 30 minutes at 11000 g at 4° C., and aliquots of the obtained supernatants were taken for determining nitrates and nitrites (NOx-), while the remaining part was mixed with cooled 20 mM of HEPES (pH 7.5), containing 0.5 mM ethylenediamine tetraacetate (EDTA), 1 mM dithiotreitol (DDT), 1 mM phenylmethylsulfonyl fluoride (PMSF), aprotinine and leupeptine at a concentration of 5 μg/ml, this mixture being used for determining nitric oxide synthase (NOS) activity.
To estimate the intensity of metabolism of nitric oxide in rats, quantitative determination of stable metabolites of nitrogen oxide-nitrites and nitrates (NOx-) was performed using a fluorometric method by fluorescence of naphthotriazole, a product of reaction of 2,3- diaminonaphthalene (DAN) and nitrite in an acidic medium (Misko T. R., Schilling R. J., Salvemini D. et al. A fluorometric assay for the measurement of nitrite in biological samples. Anal. Biochem., 1993, V. 214, p.11-16) with modifications (Lei B., Adachi N., Nagaro T., Arai T. Measurement of total nitric oxide metabolite (NO (x) (-)) levels in vivo. Brain. Res. Protoc., 1999, V. 4, p. 415-419).
The supernatants of brain deproteinized at 100° C. were placed in a nitrite recovery system containing 0.125 unit/ml of nitrate reductase, 25 μM NADPH and 25 μM FAD prepared in 20 mM Tris-HCl buffer pH 7.6 and incubated for 30 minutes at 37° C. For oxidation of NADPH a lactate dehydrogenase (LDH)/pyruvate system was used. Then 316.0 μM DAN solution in 0.62 M HCl was added and the mixture was incubated for 10 minutes in dark. For stabilization of fluorescence of the formed naphthotriazole, 280 mM NaOH was added. The fluorescence intensity was measured using spectrofluorometer Hitachi F-3000 at a wavelength of excitation 365 nm and emission 405 nm. To calculate the concentration of NOx- in the brain a standard solution of sodium nitrate was used. The concentration of NOx- was expressed in nmol/mg of protein.
(§2) The content of protein in the samples was determined by the Bradford method (Bradford M. M. A rapid and sensitive method for quantitation of microgram quantities of protein using the principle of protein binding . Anal. Biochem., 1976, V. 72, p. 248-254) using Coumassi dye. The statistical analysis was performed using methods appropriate for respective experiments. The data are expressed as mean±standard error of mean.

[3] = tested on: nitric oxide synthase (NOS); assay: Nitric oxide synthase activity in brain regions, radiometric [3H]L-citrulline method; settings: 3 x 20 mg/kg intramuscularly
Procedure: as §1
The activity of nitric oxide synthase (NOS) was determined using a radiometric method by the rate of L-citrulline accumulation in a reaction of [^3H] L-arginine oxidation catalyzed by NOS (Bredt M., Snyder S. Nitric oxide mediates glutamate-linked enhancement of cGMP levels in the cerebellum. Proc. Natl. Acad. Sci., USA, 1989, V.86, p.9030-9033). The formation of L-citrulline in this reaction is equivalent to a biosynthesis of nitric oxide.
The reaction was initiated by adding brain supernatant in the reaction medium containing 2 μCi/ml of [3H] L-arginine, 20 mM HEPES (pH 7.4), 0.2 mM CaCl2, 5 μM FAD, 5 μM FMN, 1 mM NADPH, 50 μM of BH4. After 15-60 minutes of incubation at 37° C. a suspension of Dowex 50WX8-400 (Na^+-form), which sorbs unreacted [^3H]L-arginine, but not [^3H] L-citrulline was added to the samples. After the sorption the radioactivity of the samples was determined on a scintillation counter SL-4000 (“Intertechnique”). The activity of Ca^2+-dependent and Ca^2+-independent NOS isoforms was determined by the difference of rates of [^3H]L-citrulline formation in three parallel samples containing 2 mM EDTA (Ca^2+ chelator), 2 mM EDTA+2 mM L-NAME (inhibitor all NOS isoforms) or without inhibitors. The enzyme activity was expressed in rnol [^3H]L-citrulline acumulated per 1 minute on 1 mg of supernatant protein.
as §2

[4] = Groups Nos. 3-14, compound without morphine, one value for all 12 compounds
[5] = Morphine + compound, one value for the three compounds

| SMILES | Authentic differences (ξ-square criterion) in appearance of signs of abstinence: <<Wet dog>> shakes [1] | Authentic differences (ξ-square criterion) in appearance of signs of abstinence: Aggression [1] | Authentic differences (ξ-square criterion) in appearance of signs of abstinence: Convulsions [1] | Authentic differences (ξ-square criterion) in appearance of signs of abstinence: Diarrhea [1] | Authentic differences (ξ-square criterion) in appearance of signs of abstinence: Dyspnea [1] | Authentic differences (ξ-square criterion) in appearance of signs of abstinence: Forelimb jogging [1] | Authentic differences (ξ-square criterion) in appearance of signs of abstinence: Grit with teeth [1] | Authentic differences (ξ-square criterion) in appearance of signs of abstinence: Mastication [1] | Authentic differences (ξ-square criterion) in appearance of signs of abstinence: Piloerection [1] | Authentic differences (ξ-square criterion) in appearance of signs of abstinence: Ptosis [1] | Authentic differences (ξ-square criterion) in appearance of signs of abstinence: Rhinorrhea [1] | Authentic differences (ξ-square criterion) in appearance of signs of abstinence: Squeak when touched [1] | Nitrites, brainstem [2, 4] | Nitrites, cerebellum [2, 4] | Nitrites, cerebral cortex [2, 4] | Nitrites, hippocampus [2, 4] | Nitrites, hypothalamus [2, 4] | Nitrites, midbrain [2, 4] | Nitrites, striatum [2, 4] | Nitrites, brainstem [2, 5] | further results |
| --- | --- | --- | --- | --- | --- | --- | --- | --- | --- | --- | --- | --- | --- | --- | --- | --- | --- | --- | --- | --- | --- |
| Nc1ccc2c(=O)n([C@@H]3O[C@H](CO)[C@@H](O)[C@H]3O)[nH]c(=O)c2c1.[Na] [Compound 11, sodium salt of 6-amino-2-(β-D-ribofuranosile)benzo[d]-3H-pyridazine-1,4-dione] | 0.7562 | 0.8456 | 0.7546 | 0.0032 | 0.0834 | 0.8217 | 0.8652 | 0.1032 | 0.2567 | 0.0320 | 0.4032 | 0.1342 | 6.31 ± 0.58 nmol/mg of protein | 6.66 ± 0.63 nmol/mg of protein | 4.31 ± 0.37 nmol/mg of protein | 6.47 ± 0.72 nmol/mg of protein | 6.77 ± 0.83 nmol/mg of protein | 6.65 ± 0.70 nmol/mg of protein | 6.11 ± 0.29 nmol/mg of protein | 6.99 ± 0.82 nmol/mg of protein | Nitrites, cerebellum [2, 5]: 5.85 ± 0.47 nmol/mg of protein; Nitrites, cerebral cortex [2, 5]: 4.93 ± 0.39 nmol/mg of protein; Nitrites, hippocampus [2, 5]: 5.24 ± 0.49 nmol/mg of protein; Nitrites, hypothalamus [2, 5]: 6.91 ± 0.58 nmol/mg of protein; Nitrites, midbrain [2, 5]: 5.75 ± 0.39 nmol/mg of protein; Nitrites, striatum [2, 5]: 3.57 ± 0.42 nmol/mg of protein; Activity of NOS, hippocampus [3, 4]: 3.09 ± 0.16 nmol/min/mg of protein; Activity of NOS, hypothalamus [3, 4]: 5.45 ± 0.24 nmol/min/mg of protein; Activity of NOS, midbrain [3, 4]: 2.60 ± 0.29 nmol/min/mg of protein; Activity of NOS, striatum [3, 4]: 1.26 ± 0.08 nmol/min/mg of protein; Activity of NOS, hippocampus [3, 5]: 2.51 ± 0.19 nmol/min/mg of protein; Activity of NOS, hypothalamus [3, 5]: 5.36 ± 0.33 nmol/min/mg of protein; Activity of NOS, midbrain [3, 5]: 1.99 ± 0.29 nmol/min/mg of protein; Activity of NOS, striatum [3, 5]: 1.29 ± 0.09 nmol/min/mg of protein |
| O=C([O-])c1ccc2c(=O)[nH][nH]c(=O)c2c1.O=C([O-])c1ccc2c(=O)[nH][nH]c(=O)c2c1.[Na+].[Na+] [Compound 18, disodium salt of 6-carboxy-benzo [d]-3H-pyridazine-1,4-dione] | 0.7562 | 0.8456 | 0.7546 | 0.0032 | 0.0834 | 0.8217 | 0.8652 | 0.1032 | 0.2567 | 0.0320 | 0.4032 | 0.1342 | 6.31 ± 0.58 nmol/mg of protein | 6.66 ± 0.63 nmol/mg of protein | 4.31 ± 0.37 nmol/mg of protein | 6.47 ± 0.72 nmol/mg of protein | 6.77 ± 0.83 nmol/mg of protein | 6.65 ± 0.70 nmol/mg of protein | 6.11 ± 0.29 nmol/mg of protein | 6.99 ± 0.82 nmol/mg of protein | Nitrites, cerebellum [2, 5]: 5.85 ± 0.47 nmol/mg of protein; Nitrites, cerebral cortex [2, 5]: 4.93 ± 0.39 nmol/mg of protein; Nitrites, hippocampus [2, 5]: 5.24 ± 0.49 nmol/mg of protein; Nitrites, hypothalamus [2, 5]: 6.91 ± 0.58 nmol/mg of protein; Nitrites, midbrain [2, 5]: 5.75 ± 0.39 nmol/mg of protein; Nitrites, striatum [2, 5]: 3.57 ± 0.42 nmol/mg of protein; Activity of NOS, hippocampus [3, 4]: 3.09 ± 0.16 nmol/min/mg of protein; Activity of NOS, hypothalamus [3, 4]: 5.45 ± 0.24 nmol/min/mg of protein; Activity of NOS, midbrain [3, 4]: 2.60 ± 0.29 nmol/min/mg of protein; Activity of NOS, striatum [3, 4]: 1.26 ± 0.08 nmol/min/mg of protein; Activity of NOS, hippocampus [3, 5]: 2.51 ± 0.19 nmol/min/mg of protein; Activity of NOS, hypothalamus [3, 5]: 5.36 ± 0.33 nmol/min/mg of protein; Activity of NOS, midbrain [3, 5]: 1.99 ± 0.29 nmol/min/mg of protein; Activity of NOS, striatum [3, 5]: 1.29 ± 0.09 nmol/min/mg of protein |
